This is an account of results in US20080139564A1, “SUBSTITUTED PHENYL PROPYL AMINES AS HISTAMINE H3 RECEPTOR AND SEROTONIN TRANSPORTER MODULATORS” (priority 2006, published 2008).

One assay addresses T1, human SERT (Homo sapiens, UniProt P31645).
T1 construct: expressed in transfected cells; host or cells: HEK293
The assay can be described thus: Human SERT binding (3H-citalopram displacement, HEK293 membranes). The settings on record: 3H-citalopram 3.1 nM, rt for 1 h. The method, then:
Homogenized HEK293 (Human Embryonic Kidney) membranes expressing the human SERT were incubated with ^3H-citalopram (SERT) at rt for 1 h in 50 mM Tris, 120 mM NaCl, 5 mM KCl (pH 7.4). Nonspecific binding was determined in the presence of 10 μM fluoxetine for the SERT. The membranes were washed and the radioactivity was counted as above. Calculations for Ki at the SERT were based on a Kd value for ^3H-citalopram and a ligand concentration of 3.1 nM.

Assay [1] deals with T2, human H3 receptor (Homo sapiens, UniProt Q9Y5N1).
T2 construct: expressed in transfected cells
The assay can be described thus: H3 receptor binding (N-[3H]-α-methylhistamine displacement, SK-N-MC cell membranes). The note with it: 0.8 nM N-[3H]-α-methylhistamine, 60 min at 25° C. As to the method:
Binding of compounds to the cloned human H3 receptor, stably expressed in SK-N-MC cells, was performed (Lovenberg, T. W. et al. J. Pharmacol. Exp. Ther. 2000, 293, 771-778). Briefly, cell pellets from SK-N-MC cells expressing the human H3 receptor were homogenized in 50 mM Tris-HCl/5 mM EDTA and re-centrifuged at 30,000 g for 30 min. Pellets were re-homogenized in 50 mM Tris/5 mM EDTA (pH 7.4). Membranes were incubated with 0.8 nM N—[^3H]-α-methylhistamine plus/minus test compounds for 60 min at 25° C. and harvested by rapid filtration over GF/C glass fiber filters (pretreated with 0.3% polyethylenimine) followed by four washes with ice-cold buffer. Nonspecific binding was defined in the presence of 10 μM histamine.

For a further assay, the target named is T3, Rat SERT (Rattus norvegicus, UniProt P31652).
T3 construct: A rat brain without cerebellum (Zivic Laboratories, Inc.—Pittsburgh, Pa.) was homogenized; tissue Zivic Laboratories, Inc; host or cells: rat brain without cerebellum
Briefly: Rat brain SERT binding ([3H]-Citalopram displacement, rat brain membranes). The note with it: 0.6 nM [3H]-Citalopram, 60 min at 25° C. The method, then: A rat brain without cerebellum (Zivic Laboratories, Inc.—Pittsburgh, Pa.) was homogenized in a 52.6 mM Tris pH 8/126.4 mM NaCl/5.26 mM KCl mixture and centrifuged at 1,000 rpm for 5 min. The supernatant was removed and re-centrifuged at 15,000 rpm for 30 min. Pellets were re-homogenized in a 52.6 mM Tris pH8/126.4 mM NaCl/5.26 mM KCl mixture. Membranes were incubated with 0.6 nM [^3H]-Citalopram plus/minus test compounds for 60 min at 25° C. and harvested by rapid filtration over GF/C glass fiber filters (pretreated with 0.3% polyethylenimine) followed by four washes with ice-cold buffer. Nonspecific binding was defined in the presence of 100 μM fluoxetine.

In assay [2] the target is T2, human H3 receptor. The assay can be described thus: Cyclic AMP accumulation (β-galactosidase reporter in SK-N-MC cells). The class given is cell-based. The settings on record: read-out: pA2 (converted). The method, then:
Sublines of SK-N-MC cells were created that expressed a reporter construct and the human H3 receptor. The reporter gene (β-galactosidase) is under the control of multiple cyclic AMP responsive elements. In 96-well plates, histamine was added directly to the cell media followed 5 min later by an addition of forskolin (5 μM final concentration). When appropriate, antagonists were added 10 min prior to agonist addition. After a 6-h incubation at 37° C., the media was aspirated and the cells washed with 200 μL of phosphate-buffered saline followed by a second aspiration. Cells were lysed with 25 μL 0.1× assay buffer (10 mM Na-phosphate, pH 8, 0.2 mM MgSO4, 0.01 mM MnCl2) and incubated at rt for 10 min. Cells were then incubated for 10 min with 100 μL of 1× assay buffer containing 0.5% Triton and 40 mM β-mercaptoethanol. Color was developed using 25 μL of 1 mg/mL substrate solution (chlorophenolred β-D galactopyranoside; Roche Molecular Biochemicals, Indianapolis, Ind.). Color was quantitated on a microplate reader at absorbance 570 nm. The pA2 values were calculated by Schild regression analysis of the pEC50 values.

T1 sequence (P31645 whole entry): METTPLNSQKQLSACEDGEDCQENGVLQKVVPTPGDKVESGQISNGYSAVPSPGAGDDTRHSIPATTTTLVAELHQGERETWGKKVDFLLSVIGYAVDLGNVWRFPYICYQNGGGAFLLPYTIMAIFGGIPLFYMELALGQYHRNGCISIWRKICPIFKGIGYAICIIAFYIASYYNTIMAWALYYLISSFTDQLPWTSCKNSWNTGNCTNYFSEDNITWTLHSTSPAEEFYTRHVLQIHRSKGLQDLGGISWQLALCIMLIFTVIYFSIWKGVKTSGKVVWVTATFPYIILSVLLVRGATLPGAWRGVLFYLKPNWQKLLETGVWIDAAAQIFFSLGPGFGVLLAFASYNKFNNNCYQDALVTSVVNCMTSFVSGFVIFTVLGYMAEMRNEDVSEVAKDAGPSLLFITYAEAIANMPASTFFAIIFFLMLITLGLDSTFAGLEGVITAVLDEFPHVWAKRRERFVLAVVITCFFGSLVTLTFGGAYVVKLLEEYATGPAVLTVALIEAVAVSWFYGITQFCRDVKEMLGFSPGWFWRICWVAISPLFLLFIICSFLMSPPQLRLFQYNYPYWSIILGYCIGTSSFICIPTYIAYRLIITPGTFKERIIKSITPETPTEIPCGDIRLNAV
T3 sequence (P31652 whole entry): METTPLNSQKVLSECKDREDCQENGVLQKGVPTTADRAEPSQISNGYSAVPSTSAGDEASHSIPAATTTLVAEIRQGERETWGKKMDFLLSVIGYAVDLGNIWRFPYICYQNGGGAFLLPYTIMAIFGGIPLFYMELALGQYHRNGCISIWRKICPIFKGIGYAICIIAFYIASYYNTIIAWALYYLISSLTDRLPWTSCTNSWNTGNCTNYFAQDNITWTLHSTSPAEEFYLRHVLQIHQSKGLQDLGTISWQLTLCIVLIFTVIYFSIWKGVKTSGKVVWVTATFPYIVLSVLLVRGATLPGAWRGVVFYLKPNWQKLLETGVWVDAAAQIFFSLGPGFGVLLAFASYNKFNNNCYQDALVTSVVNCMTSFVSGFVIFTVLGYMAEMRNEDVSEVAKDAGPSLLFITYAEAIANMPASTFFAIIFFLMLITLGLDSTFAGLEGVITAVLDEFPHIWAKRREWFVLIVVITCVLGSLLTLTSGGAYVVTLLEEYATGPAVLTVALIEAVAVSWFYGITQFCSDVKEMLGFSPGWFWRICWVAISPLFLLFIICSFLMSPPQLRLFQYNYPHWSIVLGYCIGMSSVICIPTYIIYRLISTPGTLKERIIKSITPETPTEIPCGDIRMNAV
T2 sequence (Q9Y5N1 whole entry): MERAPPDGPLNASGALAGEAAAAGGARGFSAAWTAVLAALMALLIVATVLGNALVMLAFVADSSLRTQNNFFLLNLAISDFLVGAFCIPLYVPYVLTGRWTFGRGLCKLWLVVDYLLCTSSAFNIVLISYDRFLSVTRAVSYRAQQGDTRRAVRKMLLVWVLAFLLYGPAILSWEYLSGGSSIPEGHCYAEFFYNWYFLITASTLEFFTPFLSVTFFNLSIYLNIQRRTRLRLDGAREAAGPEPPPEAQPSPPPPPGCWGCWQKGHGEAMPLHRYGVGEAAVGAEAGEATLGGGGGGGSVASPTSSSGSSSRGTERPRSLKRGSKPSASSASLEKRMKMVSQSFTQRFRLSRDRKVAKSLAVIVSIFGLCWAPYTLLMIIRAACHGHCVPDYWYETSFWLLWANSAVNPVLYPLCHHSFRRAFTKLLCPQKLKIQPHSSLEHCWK

For `CN(C)CCC(Oc1ccc(Br)cc1)c1ccc(OCCCN2CCCCC2)cc1` (centres unmarked) [Example 11, {3-(4-Bromo-phenoxy)-3-[4-(3-piperidin-1-yl-propoxy)-phenyl]-propyl}-dimethyl-amine], the Ki – broadly, the equilibrium dissociation constant of an inhibitor or competing ligand from its target – on human SERT was 7 nM; on human H3 receptor [1], 1.7 nM; on Rat SERT, 5 nM.

As for `CC(C)N1CCN(CCCCc2ccc(C(CCN(C)C)Oc3ccc(C(F)(F)F)cc3)cc2)CC1` (centres unmarked) [Example 34, [3-[4-[4-(4-Isopropyl-piperazin-1-yl)-butyl]-phenyl]-3-(4-trifluoromethyl-phenoxy)-propyl]-dimethyl-amine], the results for the Ki on human SERT, on human H3 receptor [1] and at Rat SERT were 10 nM, 12 nM and 7 nM, respectively.

With `CNCCC(Oc1ccccc1)c1ccc(OCCCN2CCCCC2)cc1` (centres unmarked) [Example 72, Methyl-{3-phenoxy-3-[4-(3-piperidin-1-yl-propoxy)-phenyl]-propyl}-amine], the results for the inhibition constant (Ki) on human SERT, at human H3 receptor [1] and at Rat SERT were 25 nM, 0.9 nM and 5 nM, respectively.

For `CC(C)N1CCN(CCC#Cc2ccc(C(CCN(C)C)Oc3ccccc3)cc2)CC1` (centres unmarked) [Example 22, (3-{4-[4-(4-Isopropyl-piperazin-1-yl)-but-1-ynyl]-phenyl}-3-phenoxy-propyl)-dimethyl-amine], the Ki at human SERT stood at 22 nM; at human H3 receptor [1], 49 nM; on Rat SERT, 6 nM.

Take `CN(C)CCC(Oc1ccccc1)c1ccc(C#CCCN2CCSCC2)cc1` (centres unmarked) [Example 24, Dimethyl-{3-phenoxy-3-[4-(4-thiomorpholin-4-yl-but-1-ynyl)phenyl]-propyl}-amine]: the values for the Ki at human SERT, on human H3 receptor [1] and on Rat SERT were 34 nM, 11 nM and 18 nM, respectively.

Consider `CN(C)CCC(Oc1ccc(C(F)(F)F)cc1)c1ccc(CCCCN2CCCCC2)cc1` (centres unmarked) [Example 33, Dimethyl-[3-[4-(4-piperidin-1-yl-butyl)-phenyl]-3-(4-trifluoromethylphenoxy)-propyl]-amine], for which the Ki at human SERT worked out at 5 nM; at human H3 receptor [1], 23 nM; on Rat SERT it was 3 nM.

`CN(C)CCC(Oc1ccc(C(F)(F)F)cc1)c1ccc(C(=O)N2CCN(C3CCCC3)CC2)cc1` (centres unmarked) [Example 50, (4-Cyclopentyl-piperazin-1-yl)-{4-[3-dimethylamino-1-(4-trifluoromethyl-phenoxy)-propyl]-phenyl}-methanone]: the inhibition constant Ki on human H3 receptor [1] was found to be 3 nM; on Rat SERT it was 53 nM. Also, the Kb on human H3 receptor [2] is 1.48 nM.

For the compound `NCCC(Oc1ccccc1)c1ccc(OCCCN2CCCCC2)cc1` (centres unmarked) [Example 68, 3-Phenoxy-3-[4-(3-piperidin-1-yl-propoxy)-phenyl]-propylamine], the results for the Ki at human SERT, on human H3 receptor [1] and on Rat SERT were 21 nM, 0.8 nM and 7 nM, respectively.

As for `CN(C)CCC(Oc1ccccc1)c1cccc(C#CCCN2CCCCC2)c1` (centres unmarked) [Example 31, Dimethyl-{3-phenoxy-3-[3-(4-piperidin-1-yl-but-1-ynyl)-phenyl]-propyl}-amine], the Ki on human SERT was 154 nM; on human H3 receptor [1], 2 nM; on Rat SERT, 16 nM.

On to `CN(C)CCC(Oc1ccc([N+](=O)[O-])cc1)c1ccc(OCCCN2CCCCC2)cc1` (centres unmarked) [Example 12, Dimethyl-{3-(4-nitro-phenoxy)-3-[4-(3-piperidin-1-yl-propoxy)phenyl]-propyl}-amine], for which the Ki on human SERT is 9 nM; on human H3 receptor [1] it was 0.9 nM; at Rat SERT, 4 nM.

For `CC(C)N1CCN(C(=O)c2ccc(C(CCN(C)C)Oc3ccc(C(F)(F)F)cc3)cc2)CC1` (centres unmarked) [Example 39, {4-[3-Dimethylamino-1-(4-trifluoromethyl-phenoxy)-propyl]-phenyl}-(4-isopropyl-piperazin-1-yl)-methanone], the inhibitory constant (Ki) on human H3 receptor [1] came to 2 nM. Also, on human H3 receptor [2], the Kb was 0.933 nM.

For the compound `CN(C)CCC(Oc1ccc(Cl)cc1)c1ccc(OCCCN2CCCCC2)cc1` (centres unmarked) [Example 8, {3-(4-Chloro-phenoxy)-3-[4-(3-piperidin-1-yl-propoxy)-phenyl]-propyl}-dimethyl-amine], the values for the Ki on human SERT, at human H3 receptor [1] and on Rat SERT were 16 nM, 1.7 nM and 2 nM, respectively.

Turning to `CSc1ccc(OC(CCN(C)C)c2ccc(OCCCN3CCCCC3)cc2)cc1` (centres unmarked) [Example 4, Dimethyl-{3-(4-methylsulfanyl-phenoxy)-3-[4-(3-piperidin-1-yl-propoxy)-phenyl]-propyl}-amine], the Ki came to 10 nM on human SERT, 0.9 nM at human H3 receptor [1] and 1.3 nM on Rat SERT.

`CN(C)CCC(Oc1ccc(C#N)cc1)c1ccc(OCCCN2CCCCC2)cc1` (centres unmarked) [Example 5, 4-{3-Dimethylamino-1-[4-(3-piperidin-1-yl-propoxy)-phenyl]-propoxy}-benzonitrile]: the results for the Ki at human SERT, on human H3 receptor [1] and at Rat SERT were 158 nM, 0.2 nM and 8 nM, respectively.

For `CN(C)CCC(Oc1cccc(OCCCN2CCCCC2)c1)c1ccccc1` (centres unmarked) [Example 37, Dimethyl-{3-phenyl-3-[3-(3-piperidin-1-yl-propoxy)-phenoxy]-propyl}-amine], the values for the inhibitory constant (Ki) on human SERT, on human H3 receptor [1] and at Rat SERT were 1330 nM, 0.7 nM and 65 nM, respectively.

On to `CN(C)CCC(Oc1ccccc1Cl)c1ccc(OCCCN2CCCCC2)cc1` (centres unmarked) [Example 17, {3-(2-Chloro-phenoxy)-3-[4-(3-piperidin-1-yl-propoxy)-phenyl]-propyl}-dimethyl-amine], for which the results for the Ki on human SERT, at human H3 receptor [1] and at Rat SERT were 21 nM, 0.9 nM and 8 nM, respectively.

Take `CN(C)CCC(Oc1ccc(Cl)cc1Cl)c1ccc(OCCCN2CCCCC2)cc1` (centres unmarked) [Example 16, {3-(2,4-Dichloro-phenoxy)-3-[4-(3-piperidin-1-yl-propoxy)-phenyl]-propyl}-dimethyl-amine]: the results for the Ki at human SERT, at human H3 receptor [1] and at Rat SERT were 10 nM, 0.9 nM and 7 nM, respectively.

With `CN(C)CCC(Oc1ccccc1)c1ccc(C#CCCN2CCOCC2)cc1` (centres unmarked) [Example 23, Dimethyl-{3-[4-(4-morpholin-4-yl-but-1-ynyl)-phenyl]-3-phenoxy-propyl}-amine], the figures for the Ki at human SERT, at human H3 receptor [1] and on Rat SERT were 37 nM, 19 nM and 13 nM, respectively.

On to `COc1ccc(OC(CCN(C)C)c2ccc(OCCCN3CCCCC3)cc2)cc1` (centres unmarked) [Example 7, {3-(4-Methoxy-phenoxy)-3-[4-(3-piperidin-1-yl-propoxy)-phenyl]-propyl}-dimethyl-amine], for which the figures for the Ki on human SERT, at human H3 receptor [1] and at Rat SERT were 60 nM, 0.9 nM and 2 nM, respectively.

As to `c1ccc(OC(CCN2CCCC2)c2ccc(OCCCN3CCCCC3)cc2)cc1` (centres unmarked) [Example 73, 1-{3-[4-(1-Phenoxy-3-pyrrolidin-1-yl-propyl)-phenoxy]-propyl}-piperidine], the inhibition constant (Ki) amounted to 4000 nM at human SERT, 0.2 nM at human H3 receptor [1] and 633 nM on Rat SERT.

Take `Cc1ccc(OC(CCN(C)C)c2ccc(OCCCN3CCCCC3)cc2)cc1` (centres unmarked) [Example 6, Dimethyl-{3-[4-(3-piperidin-1-yl-propoxy)-phenyl]-3-p-tolyloxy-propyl}-amine]: the values for the Ki on human SERT, at human H3 receptor [1] and on Rat SERT were 16 nM, 0.6 nM and 1.5 nM, respectively.

On to `CN(C)CCC(Oc1ccc(C(F)(F)F)cc1)c1ccc(CCCCN2CCOCC2)cc1` (centres unmarked) [Example 35, Dimethyl-[3-[4-(4-morpholin-4-yl-butyl)-phenyl]-3-(4-trifluoromethyl-phenoxy)-propyl]-amine], for which the values for the Ki at human SERT, on human H3 receptor [1] and at Rat SERT were 6 nM, 32 nM and 10 nM, respectively.

As to `CN(C)CCC(Oc1ccccc1)c1cccc(OCCCN2CCCCC2)c1` (centres unmarked) [Example 3, Dimethyl-[3-phenoxy-3-[3-(3-piperidin-1-yl-propoxy)-phenyl]-propyl]-amine], the Ki amounted to 199 nM at human SERT, 3 nM at human H3 receptor [1] and 16 nM on Rat SERT.
